From PubChem BioAssay AID1845203 (Molecular Pharmacology Branch, DTP, NCI, 2023)

Test system: G-401 tumor spheroids, viability % test/control
Test: Anticancer human tumor G-401 cell line growth inhibition;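 further: spheroids exposed to compound for 7 days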;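 on viability, T/C: 100% = DMSO vehicle-treated spheroids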
Conditions: spheroids with HUVEC and MSC; for IC50: curve of first compound; for viability, T/C: stronger effect = lower value
How it was run: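 Single agents and combinations were tested on spheroids built from tumor cells plus HUVEC and hMSC, at half-log dilutions starting at or near clinical Cmax, else 10 microM; final DMSO 0.25% (v/v).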

Compound Cc1sc2c(c1C)C(c1ccc(Cl)cc1)=NC(CC(=O)Nc1ccc(O)cc1)c1nnc(C)n1-2 (stereo not given) + Cn1nnc2c(C(N)=O)ncn2c1=O has an IC50 (second compound 1 µM) of 169 nM, an IC50 (second compound 3.16 µM) of 179 nM and an IC50 (second compound 10 µM) of 163 nM. For the same compound, the IC50 (second compound 31.6 µM) was 147 nM, the IC50 (second compound 100 µM) was 148 nM and the viability, T/C (second compound 1 µM, first compound 0.00949 µM) was 108%. For the same compound, the viability, T/C (second compound 1 µM, first compound 0.03 µM) was 83%, the viability, T/C (second compound 1 µM, first compound 0.0949 µM) was 67.4% and the viability, T/C (second compound 1 µM, first compound 0.3 µM) was 37.6%. It also gave a viability, T/C (second compound 1 µM, first compound 0.949 µM) of 13.4%, a viability, T/C (second compound 1 µM, first compound 3 µM) of 10.3% and a viability, T/C (second compound 3.16 µM, first compound 0.00949 µM) of 93%. The viability, T/C (second compound 3.16 µM, first compound 0.03 µM) was 91.8%, the viability, T/C (second compound 3.16 µM, first compound 0.0949 µM) was 65.1% and the viability, T/C (second compound 3.16 µM, first compound 0.3 µM) was 35.6%. It also gave a viability, T/C (second compound 3.16 µM, first compound 0.949 µM) of 19.7%, a viability, T/C (second compound 3.16 µM, first compound 3 µM) of 8.06% and a viability, T/C (second compound 10 µM, first compound 0.00949 µM) of 101%. The viability, T/C (second compound 10 µM, first compound 0.03 µM) was 77.3%, the viability, T/C (second compound 10 µM, first compound 0.0949 µM) was 63.5% and the viability, T/C (second compound 10 µM, first compound 0.3 µM) was 38%. For the same compound, the viability, T/C (second compound 10 µM, first compound 0.949 µM) was 20.9%, the viability, T/C (second compound 10 µM, first compound 3 µM) was 9.13% and the viability, T/C (second compound 31.6 µM, first compound 0.00949 µM) was 84.5%. It also gave a viability, T/C (second compound 31.6 µM, first compound 0.03 µM) of 82.6%, a viability, T/C (second compound 31.6 µM, first compound 0.0949 µM) of 56.1% and a viability, T/C (second compound 31.6 µM, first compound 0.3 µM) of 34%. For the same compound, the viability, T/C (second compound 31.6 µM, first compound 0.949 µM) was 20.5%, the viability, T/C (second compound 31.6 µM, first compound 3 µM) was 4.42% and the viability, T/C (second compound 100 µM, first compound 0.00949 µM) was 102%. It also gave a viability, T/C (second compound 100 µM, first compound 0.03 µM) of 83%, a viability, T/C (second compound 100 µM, first compound 0.0949 µM) of 64.8% and a viability, T/C (second compound 100 µM, first compound 0.3 µM) of 30.4%. It also gave a viability, T/C (second compound 100 µM, first compound 0.949 µM) of 11.2% and a viability, T/C (second compound 100 µM, first compound 3 µM) of 4.09%.
